pEC50: −log10 of the molar value.
Assays:
[1] = test system: HIV‐1 LTR (Jurkat^Tat LTR‐luciferase cell line); test: Jurkat^Tat LTR‐luciferase reporter assay for HIV‐1 latency reversal; assay type: cell-based; settings: Human immunodeficiency virus 1; 24 h treatment, percent activation relative to PMA
Method: Activity of compounds identified for latency‐reversing activity in the primary screens was further validated by examining the effect of a single concentration (7 μM) on an alternative reporter cell line, bearing an integrated HIV‐1 reporter virus where luciferase expression is produced from the 5′ LTR, in cells constitutively expressing the viral TAT protein (Fig 2A), referred to as Jurkat^Tat LTR‐luciferase. Importantly, this cell line has the HIV‐1 reporter virus integrated at a different chromosomal location than that of the A1 J‐Lat cell line and also enables validation of provirus reactivation with a second enzymatic luciferase assay. In these assays, after 24‐h treatment we observed 10 compounds that produced significant induction of luciferase activity, including two compounds from the KD2 library, three from the CCBN library and five compounds from the DIVERSet. Compounds that produced significant effects in these secondary assays were re‐ordered from their respective suppliers and examined in more detail using the HIV‐luciferase reporter cell line. […] These five compounds represent diverse chemical structures (Fig 2G).
Figure 2 Concentration–response analysis for five selected PH compounds • A Schematic representation of the pTY‐LAI‐luciferase reporter virus used in secondary screening assays, where luciferase expression is under the control of the 5′ LTR, in cloned lines derived from Jurkat^TAT cells bearing single‐copy integrants. • B–F Luciferase activity was measured from reporter cells treated for 24 h with the indicated compound concentrations. Results are presented as percent activation relative to PMA‐treated controls. The EC50 for each compound is indicated. Mean and standard error (SE) for the results are determined from three biological replicates (n = 3) and technical duplicates. • G Illustration of chemical structures of the PH compounds.
Luciferase assays were performed in 96‐well plate format, where 100 μl of cell culture containing 1 × 10^5 luciferase reporter cells was plated per well. After the indicated time of treatment, 100 μl of luciferase assay reagent (SuperlightTM luciferase reporter Gene Assay Kit; BioAssay Systems) was added per well, and incubated for 2 min at RT, when luciferase activity was measured on a VictorTM X3 Multilabel Plate Reader. Results were presented relative to the positive control samples treated with 50 nM PMA. T‐cell activation was measured using 1 × 10^5 wild‐type Jurkat^Tat cells or PBMCs purified from healthy donors, treated as indicated. After 24 h, cells were incubated with 2.4G2 antibody to block nonspecific binding and further stained with 5 μl of anti‐human CD69 or an IgG1 isotype control antibody conjugated with PE‐Cy^Tm7. After 30‐min incubation on ice, the cells were washed twice with PBS and analyzed using a Becton Dickinson LSRII flow cytometer (BD Biosciences) to determine mean fluorescence intensity (MFI), using FlowJo software. The mean fluorescence intensity (MFI) obtained from cells stained with IgG isotype antibody control was subtracted from that from cells stained with CD69 to compensate for background (MFICD69‐MFIIgG). IL‐2 production was measured in cell culture supernatants using a human IL‐2 ELISA System (eBioscience). Jurkat^Tat clones bearing integrations of the mini‐dual HIV reporter virus, clone #11 and #131, were plated at 1 × 10^5 per well in a 96‐well plate format, treated for the indicated time, washed with 1 ml PBS, and then transferred into flow cytometry tubes, where they were fixed with freshly made 1% formaldehyde for 10 min at RT prior to analysis by flow cytometry. Results are presented as ΔMFI, where MFI obtained from parental Jurkat^Tat cells undergoing the same treated was subtracted from the MFI corresponding to each cell line; ΔMFI = (MFI compound‐treated cell line 131/11 − MFI compound‐treated WT Jurkat^Tat cells).

[2] = test system: latent HIV‐1 provirus in resting CD4^+ T cells from HIV‐1‐infected patients; test: Supernatant HIV‐1 RNA from resting CD4+ T cells of patients (RT–qPCR); assay type: cell-based; settings: 30 μM, 24 h
Method: For this analysis, we purified resting CD4^+ (rCD4^+) T lymphocytes from pools of patient samples by two‐step negative selection (Appendix Table S3). […] Purified rCD4^+ T cells were treated with 30 μM of each PH compound for 24 h, and RNA from the culture supernatants was analyzed by one‐step RT–qPCR, where results are presented as copy numbers of the virion/ml. […] Based on its capability for reactivating latent provirus at multiple chromosomal locations in cell lines, its negligible toxic effect, and that it produces the most robust reactivation of virus from patient samples, we focused our subsequent analysis on this compound (Table 1).
Figure 8 Effect of PH compounds on expression of HIV provirus in latently infected cells from patients Resting CD4^+ T cells purified from patient samples (n = 18, Appendix Table S3) were treated with 30 μM of each PH compound for 24 h, and HIV‐1 RNA was measured in culture supernatants. Results are presented as HIV virions/ml (mean ± SE). LOD indicates the limit of detection, 100 copies/ml culture supernatant. TEXT PRINTED IN THE PICTURE: PMA: Supernatant HIV-1 mRNA (Copies/ml): 308929.80 (50 nM) | PH01: Supernatant HIV-1 mRNA (Copies/ml): 5348.04 (Single Concentration (30μM)) | PH02: Supernatant HIV-1 mRNA (Copies/ml): 17624.53 (Single Concentration (30μM)) | PH03: Supernatant HIV-1 mRNA (Copies/ml): 4714.11 (Single Concentration (30μM)) | PH04: Supernatant HIV-1 mRNA (Copies/ml): 7134.68 (Single Concentration (30μM)) | PH05: Supernatant HIV-1 mRNA (Copies/ml): 587.19 (Single Concentration (30μM))
HIV‐1 RNA was measured from 1 × 10^6 resting CD4^+ T lymphocytes treated with 30 μM of each compound. Extracellular RNA was isolated using the ZR Viral RNA Kit (Zymo Research) and total cellular mRNA using the RNeasy MinElute cleanup kit (Qiagen). HIV‐1 RNA concentrations were assayed in one‐step RT–qPCRs using the iTaq™ universal SYBR Green one‐step kit (BIO‐RAD) with the HIV‐1 LTR‐specific primers, AGCCGCCTAGCATTTCATC and […]. RNA copy number was calculated using a standard curve generated from titrated infections with RGH‐PGK virus (Dahabieh et al, 2013). Reproducibility of RT–qPCR analysis was confirmed using a second set of primers within HIV‐1 p24 Gag, AGCAGCCATGCAAATGTTA, […]. HIV‐1 RNA determinations were normalized to GAPDH RNA measured using the primers […] and […].

CC(=O)Oc1ccccc1N(C=C1Sc2ccccc2C1=O)C(C)=O [PH02, 2‐{acetyl[(3‐oxo‐1‐benzothien‐2(3H)‐ylidene)methyl]amino}phenyl acetate]
pEC50 [1]: 6.10
viral latency‐reversing activity compared to PMA [2]: consistently produced the strongest effect
Supernatant HIV-1 mRNA ([2]; LOD 100 copies/ml): 17624.53 Copies/ml

Source: paper PMC5838563, “Compounds producing an effective combinatorial regimen for disruption of HIV‐1 latency” (EMBO Molecular Medicine, 2017)
